These results are taken from ChEMBL document CHEMBL1145898, “Molecular docking studies of natural cholinesterase-inhibiting steroidal alkaloids from Sarcococca saligna” (J Med Chem, 2003).

The target of test [1] is T1, Acetylcholinesterase (Torpedo californica, UniProt P04058). In words: In vitro binding affinity was determined against acetylcholinesterase from torpedo californica. Also on record: species or system Tetronarce californica.
Test [2] has as its target T1, Acetylcholinesterase. As to the kind of experiment: In vitro anticholinesterase activity was determined against acetylcholinesterase from Torpedo californica. Also on record: species or system Tetronarce californica.

T1 sequence (P04058 whole entry): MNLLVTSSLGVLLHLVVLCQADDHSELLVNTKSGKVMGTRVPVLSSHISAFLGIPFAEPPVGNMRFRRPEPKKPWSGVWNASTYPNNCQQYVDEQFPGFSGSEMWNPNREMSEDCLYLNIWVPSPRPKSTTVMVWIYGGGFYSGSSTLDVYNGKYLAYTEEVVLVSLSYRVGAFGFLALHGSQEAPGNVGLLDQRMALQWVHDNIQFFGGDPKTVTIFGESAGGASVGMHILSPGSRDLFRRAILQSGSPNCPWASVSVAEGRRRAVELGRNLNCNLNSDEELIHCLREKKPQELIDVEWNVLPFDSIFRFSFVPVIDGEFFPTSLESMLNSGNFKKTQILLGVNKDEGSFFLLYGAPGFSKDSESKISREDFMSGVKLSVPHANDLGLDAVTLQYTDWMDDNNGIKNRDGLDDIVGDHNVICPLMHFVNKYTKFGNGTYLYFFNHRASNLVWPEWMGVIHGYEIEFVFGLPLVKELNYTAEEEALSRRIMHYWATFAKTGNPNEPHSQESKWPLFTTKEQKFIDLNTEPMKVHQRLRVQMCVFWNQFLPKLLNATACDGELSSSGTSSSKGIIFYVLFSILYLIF

`C/C=C(\C)C(=O)N[C@H]1CC[C@@]2(C)C(=CC[C@H]3C4=CC[C@H]([C@H](C)N(C)C)[C@@]4(C)CC[C@@H]32)C1=O` came in with a Ki on Acetylcholinesterase [1] of 2.65 µM. That is a single-digit micromolar value. Regarding `C/C=C(\C)C(=O)N[C@@H]1C=C2CC[C@@H]3[C@H](CC[C@]4(C)C([C@H](C)N(C)C)=CC[C@@H]34)[C@@]2(C)C[C@H]1O`, on Acetylcholinesterase [2], the concentration for half-maximal inhibition (IC50) came out at 185 µM. The molecule `CC(=O)O[C@H]1[C@@H](NC(=O)C=C(C)C)CC[C@]2(C)[C@H]3CC[C@]4(C)[C@@H]([C@H](C)N(C)C)CC[C@H]4[C@@H]3CC[C@@H]12` yielded an inhibition constant (Ki) on Acetylcholinesterase [1] of 17.6 µM. The 50% inhibitory concentration (IC50) against Acetylcholinesterase [2] was 8.5 µM. The matching figures for `CN[C@H]1CC[C@@]2(C)[C@@H](CC[C@@H]3[C@@H]2CC[C@]2(C)[C@@H]([C@H](C)N(C)C(C)=O)CC[C@@H]32)C1`: 216 µM and 204 µM.

For the molecule `C[C@@H]([C@H]1CC[C@H]2[C@@H]3CC[C@H]4C(=O)C(NC(=O)c5ccccc5)=CC[C@]4(C)[C@H]3CC[C@]12C)N(C)C`, the inhibitory constant (Ki) at Acetylcholinesterase [1] is 3.03 µM. In addition, the midpoint of inhibition against Acetylcholinesterase [2], the IC50, lay at 5.2 µM. The matching figures for `C/C=C(\C)C(=O)N[C@@H]1[C@H](OC(C)=O)[C@@H]2CC[C@H]3C4=CC[C@H]([C@H](C)N(C)C)[C@@]4(C)CC[C@@H]3[C@@]2(C)C[C@@H]1O`: 134 µM and 61.3 µM. On to `C[C@@H]([C@H]1CC[C@H]2[C@@H]3CC[C@H]4C[C@@H](NC(=O)c5ccccc5)[C@@H](O)C[C@]4(C)[C@H]3CC[C@]12C)N(C)C`, for which, at Acetylcholinesterase [2], the IC50 was found to be 78.2 µM. On Acetylcholinesterase [1], `C/C=C(\C)C(=O)N[C@H]1CC[C@@]2(C)C(=CC[C@H]3[C@@H]4CC[C@H]([C@H](C)N(C)C)[C@@]4(C)CC[C@@H]32)C1=O` returned a Ki of 5.4 µM. Further, the IC50 against Acetylcholinesterase [2] was 7.1 µM.

In the case of `C/C(=C\C(=O)N(C)[C@H]1CC[C@@]2(C)[C@@H](CC[C@@H]3[C@@H]2CC[C@]2(C)[C@@H]([C@H](C)N(C)C)CC[C@@H]32)C1)C(C)C`, the affinity at Acetylcholinesterase [1] corresponds to a Ki of 4.1 µM. As for `C/C(=C\C(=O)N[C@H]1CC[C@@]2(C)[C@@H](CC[C@@H]3[C@@H]2CC[C@]2(C)[C@@H]([C@H](C)N(C)C)CC[C@@H]32)C1)C(C)C`, the Ki at Acetylcholinesterase [1] worked out at 9.05 µM. 50.6 µM corresponded to half-maximal inhibition on Acetylcholinesterase [2] (IC50). `CC(=O)O[C@H]1[C@@H](NC(=O)c2ccccc2)[C@@H](O)C[C@]2(C)[C@H]3CC[C@]4(C)[C@@H]([C@H](C)N(C)C)CC[C@H]4[C@@H]3CC[C@@H]12` gave an inhibition constant Ki on Acetylcholinesterase [1] of 126 µM. Besides, 228 µM corresponded to half-maximal inhibition on Acetylcholinesterase [2] (IC50). At Acetylcholinesterase [2], `C/C=C(\C)C(=O)N[C@@H]1[C@H](OC(C)=O)[C@@H]2CC[C@@H]3[C@H](CC[C@]4(C)[C@@H]([C@H](C)N(C)C)CC[C@@H]34)[C@@]2(C)C[C@@H]1O` gave an IC50 of 182 µM. With `CC(=O)N[C@H]1CC[C@@]2(C)[C@@H](CC[C@@H]3[C@@H]2CC[C@]2(C)[C@@H]([C@H](C)N(C)C)CC[C@@H]32)C1`, the Ki at Acetylcholinesterase [1] turned out to be 90.3 µM. This molecule also yielded an IC50 on Acetylcholinesterase [2] of 69.9 µM. The matching figures for `C/C(=C\C(=O)N(C)[C@H]1CC[C@@]2(C)[C@@H](CC[C@@H]3[C@@H]2CC[C@]2(C)C([C@H](C)N(C)C)=CC[C@@H]32)C1)C(C)C`: 10.7 µM and 6.2 µM.

Consider `C[C@@H]([C@H]1CC[C@H]2[C@@H]3CC[C@H]4C[C@@H](N(C)C(=O)/C=C/c5ccccc5)CC[C@]4(C)[C@H]3CC[C@]12C)N(C)C` [SALIGCINNAMIDE], for which the Ki at Acetylcholinesterase [1] turned out to be 12.2 µM. In addition, the IC50 at Acetylcholinesterase [2] was determined as 19.9 µM.
